Molecular target: T1, human MR (Homo sapiens, UniProt P08235)
T1 construct: The full length human MR gene is cloned from a human kidney or human brain cDNA library; His tag from the pAcHLT vector (own knowledge); made in house; host or cells: Sf9 insect cells (baculovirus, pAcHLT transfer vector)
T1 sequence (P08235 1-984): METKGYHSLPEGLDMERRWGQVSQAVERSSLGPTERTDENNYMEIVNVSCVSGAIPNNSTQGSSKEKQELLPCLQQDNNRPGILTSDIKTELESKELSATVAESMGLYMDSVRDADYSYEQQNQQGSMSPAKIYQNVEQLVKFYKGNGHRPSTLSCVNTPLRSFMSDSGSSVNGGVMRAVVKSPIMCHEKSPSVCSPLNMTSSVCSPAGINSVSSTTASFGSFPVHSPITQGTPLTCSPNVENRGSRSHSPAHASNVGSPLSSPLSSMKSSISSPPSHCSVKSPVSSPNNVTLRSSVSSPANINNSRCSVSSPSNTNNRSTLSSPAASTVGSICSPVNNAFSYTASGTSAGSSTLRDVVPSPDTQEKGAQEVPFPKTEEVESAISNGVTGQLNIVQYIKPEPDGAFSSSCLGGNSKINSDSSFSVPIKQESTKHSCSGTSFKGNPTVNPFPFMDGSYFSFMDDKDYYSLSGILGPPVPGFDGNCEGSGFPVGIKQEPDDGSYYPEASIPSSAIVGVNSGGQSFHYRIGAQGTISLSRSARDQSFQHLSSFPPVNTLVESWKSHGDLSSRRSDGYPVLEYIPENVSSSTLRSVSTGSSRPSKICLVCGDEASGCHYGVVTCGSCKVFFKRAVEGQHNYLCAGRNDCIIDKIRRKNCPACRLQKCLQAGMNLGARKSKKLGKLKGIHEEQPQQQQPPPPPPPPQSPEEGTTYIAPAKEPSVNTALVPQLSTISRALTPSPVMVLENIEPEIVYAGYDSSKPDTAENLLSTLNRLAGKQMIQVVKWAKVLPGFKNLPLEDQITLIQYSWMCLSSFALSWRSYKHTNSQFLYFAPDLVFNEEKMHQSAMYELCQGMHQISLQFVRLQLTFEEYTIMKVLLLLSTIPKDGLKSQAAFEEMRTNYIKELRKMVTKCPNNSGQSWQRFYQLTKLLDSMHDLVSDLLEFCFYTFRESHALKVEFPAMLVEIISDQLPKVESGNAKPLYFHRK
Test: Mineralocorticoid Receptor Binding Assay ([3H]-aldosterone)
Conditions: [3H]-aldosterone binding, human MR expressed in Sf9 cells; read-out: MR Ki
Protocol: All ligands, radioligands, solvents, and reagents employed in the binding assays are readily available from commercial sources, or can be readily synthesized by the ordinarily skilled artisan.
The full length human MR gene is cloned from a human kidney or human brain cDNA library. […] The PCR reaction is performed in a final volume of 50 μl containing about 1 μl of a 50× stock solution of polymerase; about 1 μl of a 50× stock solution of dNTP; about 5 μl of an appropriate PCR buffer; about 1 μl of each primer; about […] of a H. kidney or H. brain cDNA library; and about 36 μl of water. The reaction is allowed to denature for about 30 seconds at 95 degrees Celsius, anneal for about 30 seconds at 55 degrees Celsius, and extend for about 5 minutes at 72 degrees Celsius, the sequence being repeated for a total of about 35 cycles. […] To extract the cDNA product from the agarose gel, the QIAEX II Gel Extraction protocol (QIAGEN, Inc.) is employed according to the manufacturer's instructions. Following extraction, the MR cDNA is cloned into an appropriate cloning vector (Zero Blunt TOPO PCR Cloning Kit Invitrogen, Inc.) and a pAcHLT-baculovinis transfer vector (B.D./Pharminogen), then expressed in SF9 insect cells, essentially according to manufacturer's instructions. Sf9 cells are grown at a scale where gram quantity cell pellets are obtained for subsequent use in the MR binding assay. Harvested cell pellets are lysed by repeated freeze-thaw cycles (about 4) in a suitable lysis buffer then centrifuged at about 1×10^3 G (with the supernatant being saved for future assays).
MR binding assays are performed in a final total volume of about 250 μl containing about 20-25 μg of protein and 0.5 nM of [^3H]-aldosterone plus varying concentrations of test compound or vehicle. The assay binding buffer consists of 30 mM sodium molybdate, 30 mM of TRIS-HCl, 5 mM sodium phosphate, 5 mM sodium pyrophosphate, and about 10% glycerol, pH=7.5.
Incubations are carried out at 4 degrees Celsius with shaking for about 16 hours. 200 μl aliquots of each incubation are filtered onto Millipore HA 0.45 micron 96-well filter plates, pre-moistened with cold 30 mM TRIS-HCl. The filter plates are suctioned dry with vacuum and immediately washed 3× with cold 30 mM TRIS-HCl. The plates are then punched out and the amount of receptor-ligand complex is determined by liquid scintillation counting using 4 ml of Ready Protein Plus™ liquid scintillation cocktail.
IC50 values (defined as the concentration of test compound required to decrease [^3H]-aldosterone binding by 50%/o) are then determined.

Row | SMILES | Ki
1 | CS(=O)(=O)Nc1ccc2c(c1)CCc1ccccc1/C2=C/c1cccc(O)c1 [Example 337] | < 1000 nM
2 | COc1ccc2c(c1)CCc1cc(Cl)ccc1/C2=C\c1cccc(NS(C)(=O)=O)c1 [Example 425] | < 500 nM
3 | COc1ccc2c(c1)CCc1cc(Cl)ccc1/C2=C/c1cccc(NS(C)(=O)=O)c1 [Example 426] | < 500 nM
4 | CS(=O)(=O)Nc1cccc(/C=C2\c3ccc(F)cc3CCc3ncccc32)c1 [Example 486, (E)-N-[3-(8-fluoro-10,11-dihydro-benzo[4,5]cyclohepta[1,2-b]pyridin-5-ylidenemethyl)-phenyl]-methanesulfonamide] | < 500 nM
5 | CC(=O)Nc1nc2c(s1)/C(=C\c1cccc(NS(C)(=O)=O)c1)c1ccccc1CC2 [Example 558] | < 500 nM
6 | O=[N+]([O-])c1cccc(/C=C2/c3ccccc3OCc3c(Cl)cccc32)c1 [Example 621] | < 500 nM
7 | O=c1[nH]c2ccc(/C=C3/c4ccc(F)cc4OCc4ncccc43)cc2[nH]1 [Example 625] | < 500 nM
8 | Cc1ccc2c(c1)/C(=C/c1cccc(NS(C)(=O)=O)c1)c1ccccc1CO2 [Example 678] | < 500 nM
9 | C/C(=C1\c2ccccc2CCc2cc(C)ccc21)c1cccc(NS(C)(=O)=O)c1 [Example 781] | < 500 nM
10 | C/C(=C1\c2ccccc2COc2cc(Cl)ccc21)c1cccc(NS(C)(=O)=O)c1 [Example 791] | < 500 nM
11 | CCCCOc1ccc2c(c1)OCc1ccccc1/C2=C(/C)c1cccc(NS(C)(=O)=O)c1 [Example 816] | < 500 nM
12 | C/C(=C1\c2ccccc2CCc2cc(OCC3CC3)ccc21)c1cccc(NS(C)(=O)=O)c1 [Example 825] | < 500 nM

Now from value to compound:

Row | Ki | SMILES
13 | < 500 nM | CC(C)S(=O)(=O)Nc1ccc(C=C2c3ccccc3CCc3ccccc32)cc1 [Example 107, Propane-2-sulfonic acid [4-(10,11-dihydro-dibenzo[a,d]cyclohepten-5-ylidenemethyl)-phenyl]-amide]
14 | < 500 nM | CSc1cccc(C=C2c3ccccc3CCc3ccccc32)c1 [Example 278, 5-(3-Methylsulfanyl-benzylidene)-10,11-dihydro-5H-dibenzo[a,d]cycloheptene]
15 | < 500 nM | Cc1cccc2c1/C(=C/c1cccc(NS(C)(=O)=O)c1)c1ccccc1CC2 [Example 313]
16 | < 500 nM | CS(=O)(=O)Nc1cccc(/C=C2/c3ccccc3CCc3cc(F)ccc32)c1 [Example 354]
17 | < 500 nM | CS(=O)(=O)Nc1cccc(C=C2c3ccccc3CCc3ccsc32)c1 [Example 493]
18 | < 1000 nM | CS(=O)(=O)Nc1cccc(/C=C2/c3ccccc3CCc3ccncc32)c1 [Example 513]
19 | < 500 nM | O=c1[nH]c2cc(/C=C3/c4ccc(F)cc4OCc4ncccc43)ccc2n1CCN1CCOCC1 [Example 618, (E)-5-(8-Fluoro-11H-10-oxa-1-aza-dibenzo[a,d]cyclohepten-5-ylidenemethyl)-1-(2-morpholin-4-yl-ethyl)-1,3-dihydro-benzoimidazol-2-one]
20 | < 500 nM | O=c1[nH]c2ccc(CC3c4ccccc4COc4cc(F)ccc43)cc2[nH]1 (centres unmarked) [Example 645]
21 | < 500 nM | CS(=O)(=O)Nc1cccc(C=C2c3ccccc3CSc3c(Cl)cc(Cl)cc32)c1 [Example 697]
22 | < 500 nM | Cn1c(=O)n(C)c2cc(/C=C3\c4ccccc4COc4cc(F)ccc43)ccc21 [Example 717]
23 | < 500 nM | O=c1[nH]c2cc(/C=C3\c4ccc(F)cc4OCc4ncsc43)ccc2n1CCN1CCOCC1 [Example 719]
24 | < 500 nM | CS(=O)(=O)Nc1cccc(C=C2c3ccccc3CSc3c(Cl)cccc32)c1 [Example 720]
25 | < 500 nM | COCC(=C1c2ccccc2CCc2cc(Cl)ccc21)c1cccc(NS(C)(=O)=O)c1 [Example 756, N-{3-[1-(2-Chloro-10,11-dihydro-dibenzo[a,d]cyclohepten-5-ylidene)-2-methoxy-ethyl]-phenyl}-methanesulfonamide]
26 | < 500 nM | C/C(=C1/c2ccccc2CCc2cc(C)ccc21)c1cccc(NS(C)(=O)=O)c1 [Example 782]
27 | < 500 nM | C/C(=C1/c2ccccc2COc2cc(Cl)ccc21)c1cccc(NS(C)(=O)=O)c1 [Example 792]
28 | < 500 nM | CCOc1ccc2c(c1)OCc1ccccc1/C2=C(\C)c1cccc(NS(C)(=O)=O)c1 [Example 815]
29 | < 500 nM | C/C(=C1/c2ccccc2CCc2cc(OCC3CC3)ccc21)c1cccc(NS(C)(=O)=O)c1 [Example 826]

Source: patent US20060063759A1, “Tricyclic steroid hormone nuclear receptor modulators” (priority 2002, published 2006)
